Assay type in all cases: cell-based
One test concerns the target T1, human A2B receptor (Homo sapiens, UniProt P29275).
T1 construct: expressed in transfected cells; host or cells: HEK293
T1 sequence (P29275 1-332): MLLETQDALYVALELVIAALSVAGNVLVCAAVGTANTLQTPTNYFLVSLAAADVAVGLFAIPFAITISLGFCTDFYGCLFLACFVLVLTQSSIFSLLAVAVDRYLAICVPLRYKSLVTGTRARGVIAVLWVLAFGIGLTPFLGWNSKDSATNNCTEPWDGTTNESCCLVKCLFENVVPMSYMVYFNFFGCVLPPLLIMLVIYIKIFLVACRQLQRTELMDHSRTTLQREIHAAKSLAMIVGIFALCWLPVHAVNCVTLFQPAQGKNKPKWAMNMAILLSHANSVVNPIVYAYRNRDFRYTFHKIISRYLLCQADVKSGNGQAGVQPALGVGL
The test can be described thus: Functional A2B receptor activity, recombinant HEK293 cells, cAMP (HTRF), agonist NECA. The note with it: read-out: Functional A2B receptor activity, HEK293, cAMP, IC50. The procedure, abridged:
(§1)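 Intracellular cAMP, the adenosine receptor second messenger, is measured by HTRF following 30 min co-incubation with forskolin, agonist and test compound. Normalization uses DMSO as the neutral control and an inhibitor as the reference control. Fitted curves yield the values.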
On the technique in general: TR-FRET usually uses a lanthanide donor and a delayed reading to cut background.

The target in a further test is T2, human A1 receptor (Homo sapiens, UniProt P30542).
T2 construct: expressed in transfected cells; host or cells: CHO
T2 sequence (P30542 1-326): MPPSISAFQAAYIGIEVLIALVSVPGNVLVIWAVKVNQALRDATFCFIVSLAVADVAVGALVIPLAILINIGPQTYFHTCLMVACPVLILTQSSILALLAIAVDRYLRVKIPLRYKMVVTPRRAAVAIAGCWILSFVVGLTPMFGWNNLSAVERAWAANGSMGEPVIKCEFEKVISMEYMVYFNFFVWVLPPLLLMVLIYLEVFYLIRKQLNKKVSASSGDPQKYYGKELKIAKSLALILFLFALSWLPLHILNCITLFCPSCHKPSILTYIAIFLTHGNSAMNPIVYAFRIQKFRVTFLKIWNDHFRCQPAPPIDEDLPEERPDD
The test can be described thus: Functional A1 receptor activity, recombinant CHO cells, cAMP (HTRF), forskolin, agonist CPA. The note with it: recombinant CHO cells, forskolin, agonist CPA; read-out: Functional A1 receptor activity, CHO, cAMP, IC50. The procedure, abridged:
(§2)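 Normalized HTRF cAMP signals (inhibitor and DMSO controls as references) were curve-fitted; assays used forskolin-stimulated CHO cells with A1 or A3, agonist CPA or IB-MECA respectively, 30 min compound incubation.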

The target of a further test is T3, human A3 receptor (Homo sapiens, UniProt P0DMS8).
T3 construct: expressed in transfected cells; host or cells: CHO
T3 sequence (P0DMS8 1-318): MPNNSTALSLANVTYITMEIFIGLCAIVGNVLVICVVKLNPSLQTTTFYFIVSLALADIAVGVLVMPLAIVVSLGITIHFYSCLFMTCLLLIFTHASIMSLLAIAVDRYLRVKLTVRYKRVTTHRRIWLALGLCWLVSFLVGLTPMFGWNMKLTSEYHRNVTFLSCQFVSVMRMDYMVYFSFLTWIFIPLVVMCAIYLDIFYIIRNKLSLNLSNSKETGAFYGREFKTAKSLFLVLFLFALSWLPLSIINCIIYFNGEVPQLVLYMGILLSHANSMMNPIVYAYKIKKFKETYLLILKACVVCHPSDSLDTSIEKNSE
Nature of the test: Functional A3 receptor activity, recombinant CHO cells, cAMP (HTRF), forskolin, agonist IB-MECA. The note with it: recombinant CHO cells, forskolin, agonist IB-MECA; read-out: Functional A3 receptor activity, CHO, cAMP, IC50. The procedure, abridged:
as §2

The test system of test [1] is mouse Pan T cells. The test can be described thus: mTcell assay, cAMP, agonist NECA. The procedure, abridged: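 Mouse splenic Pan T cells, pre-activated 48 hours with anti-CD3/CD28 beads, then plated at 50,000 cells/well in serum-free medium with 0.1% BSA. Compounds tested in 10-point dose response from 10 uM; after 30 minutes at 37° C, cAMP measured by HTRF.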
The subject of test [2] is mouse Pan T cells. The test can be described thus: mTcell assay, IL-2, rescue of cytokine secretion, agonist NECA. The settings on record: 24 h. An excerpt:
Adenosine (Ado) in tumor microenvironment can inhibit T cell activity by signaling through A2A receptors and suppress cytokine secretion by T cells. […] Potential A2A antagonists or A2A/A2B dual antagonists can rescue T cells from this inhibition. Herein, we describe the in vitro system we established using Pan T cells from mouse spleens to screen potential A2A antagonists or A2A/A2B dual antagonists for their activity. The method described involves the use of CD3/CD28 pre-coated beads to stimulate Pan T cells purified from mouse splenocytes, combined with the addition of A2A agonist along with potential A2A or A2A/A2B dual antagonists to evaluate potentiation of T cell cytokine production.
Briefly, mouse Pan T cells are purified from spleens of BALB/c mice using Pan T cell isolation kit Mouse II (MACS Miltenyi biotech Cat # Order no. 130-095-130) according to manufacturer's protocol. The purified T cells are seeded in Nunc™ 96-Well Polystyrene Round Bottom Microwell Plates in RPMI medium with 10% heat inactivated fetal bovine serum. The cells are rested at 37° C. for 1 h before activating with CD3/CD28 pre-coated beads (Dynabeads™ Mouse T-Activator CD3/CD28; Cat #11456D). After 30 min the cells are treated with varying doses of test antagonist(s). […] After 24 h incubation IL-2 levels in the supernatants are measured by ELISAs according to manufacturer's protocol (R&D systems Cat #DY402 (IL-2)). Once the concentrations are calculated, the difference of cytokine concentration of DMSO control and agonist alone control is calculated and the percentage of rescue by each concentration of antagonist is calculated by using Microsoft Excel. These percentages of cytokine rescue in a dose dependent manner of antagonist is plotted in GraphPad Prism software and IC50 is calculated.

The target in test [3] is T4, human A2A receptor (Homo sapiens, UniProt P29274). The test can be described thus: Human T cells, endogenous A2A receptor, cAMP, agonist NECA. The settings on record: read-out: hTcell data, cAMP, IC50. The procedure, abridged:
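Pan T cells isolated from fresh human blood PBMC, endogenously expressing Gs-coupled A2A, treated with compounds. Cellular cAMP measured by HTRF after 1 h; data normalized to inhibitor control and DMSO neutral control, then curve-fitted.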

A further test relates to human T cells. The test can be described thus: hTcell data, IL-2 (human T cells, IL-2 readout; method not given). The settings on record: compounds of the present invention.
For test [4], the target named is T4, human A2A receptor. The test can be described thus: Functional A2A receptor activity, recombinant HEK293 cells, cAMP (HTRF), agonist NECA. On the set-up: expressed in transfected cells; host or cells: HEK293. The settings on record: read-out: Functional A2A receptor activity, HEK293, cAMP, IC50. The method in brief:
as §1

T4 sequence (P29274 whole entry): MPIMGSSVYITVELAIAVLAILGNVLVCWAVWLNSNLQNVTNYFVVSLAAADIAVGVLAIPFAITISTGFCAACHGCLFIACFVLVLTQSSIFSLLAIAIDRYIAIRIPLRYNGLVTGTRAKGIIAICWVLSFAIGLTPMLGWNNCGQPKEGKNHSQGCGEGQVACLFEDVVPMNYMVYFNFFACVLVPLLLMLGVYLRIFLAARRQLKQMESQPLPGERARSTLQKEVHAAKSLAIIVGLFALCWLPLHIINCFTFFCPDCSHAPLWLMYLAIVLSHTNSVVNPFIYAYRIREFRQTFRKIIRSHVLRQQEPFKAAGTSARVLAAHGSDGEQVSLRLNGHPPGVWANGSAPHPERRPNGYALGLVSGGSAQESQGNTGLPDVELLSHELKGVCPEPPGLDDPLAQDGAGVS

Regarding `COc1ncc(-c2cccc(N)c2)c2sc(NC(=O)N3CCC4(CCOCC4)C3)nc12` [Compound 39, 8-Oxa-2-aza-spiro[4.5]decane-2-carboxylic acid [7-(3-amino-phenyl)-4-methoxy-thiazolo[4,5-c]pyridin-2-yl]-amide], the IC50 (as a rule, the midpoint of a concentration-inhibition curve) at human A2B receptor was under 0.01 µM; on human A1 receptor it was over 1 µM; on human A3 receptor, over 1 µM; with mouse Pan T cells [1] (Mus musculus, T-cell) it was under 0.01 µM; in the test with mouse Pan T cells [2] (Mus musculus, T-cell), under 0.01 µM; at human A2A receptor [3], under 0.01 µM. The figures for the IC50 in the test on human T cells (T-cell) and at human A2A receptor [4] were under 0.1 µM and under 0.01 µM, respectively.
For the compound `COc1ncc(C2=CCOCC2)c2sc(NC(=O)N3CCC4(CCCOC4)C3)nc12` (centres unmarked) [Compound 15, 7-Oxa-2-aza-spiro[4.5]decane-2-carboxylic acid [7-(3,6-dihydro-2H-pyran-4-yl)-4-methoxy-thiazolo[4,5-c]pyridin-2-yl]-amide], the IC50 is under 0.01 µM at human A2B receptor; over 1 µM on human A1 receptor; over 1 µM on human A3 receptor; under 0.1 µM in the test with mouse Pan T cells [2] (mouse Pan T cells, CD3/CD28 activated, NECA 1 μM, IL-2 rescue); under 0.01 µM with human T cells; under 0.01 µM at human A2A receptor [4].
On to `COc1nc(F)c(C2CCOCC2)c2sc(NC(=O)c3ccc(C(=O)N(C)C)cc3)nc12` [Compound 20, N-[6-Fluoro-4-methoxy-7-(tetrahydro-pyran-4-yl)-thiazolo[4,5-c]pyridin-2-yl]-N′,N′-dimethyl-terephthalamide], for which the IC50 on human A2B receptor is under 0.01 µM; at human A1 receptor it was over 1 µM; on human A3 receptor, over 1 µM; with mouse Pan T cells [1] (Mus musculus, T-cell), under 0.1 µM; in the test on mouse Pan T cells [2] (Mus musculus, T-cell) it was under 0.1 µM; on human A2A receptor [3] it was under 0.01 µM. Besides, the concentration for half-maximal inhibition (IC50) in the test with human T cells (T-cell) and on human A2A receptor [4] was under 0.01 µM in each case.
As to `COc1nc(F)c(C2CCOCC2)c2sc(NC(=O)N3CCC4(CCOCC4)C3)nc12` [Compound 26, 8-Oxa-2-aza-spiro[4.5]decane-2-carboxylic acid [6-fluoro-4-methoxy-7-(tetrahydro-pyran-4-yl)-thiazolo[4,5-c]pyridin-2-yl]-amide], the IC50 at human A2B receptor is under 0.1 µM; on human A1 receptor, over 1 µM; at human A3 receptor it was over 1 µM; in the test on mouse Pan T cells [1] (Mus musculus, T-cell) it was under 0.01 µM; with mouse Pan T cells [2] (Mus musculus, T-cell) it was under 0.01 µM; at human A2A receptor [3], under 0.01 µM. Moreover, the values for the IC50 in the test with human T cells (T-cell) and at human A2A receptor [4] were under 0.1 µM and under 0.01 µM, respectively.
With `COc1nc(F)c(N2CCOCC2)c2sc(NC(=O)c3ccc(-c4nnn[nH]4)cc3)nc12` [Compound 6, N-(6-Fluoro-4-methoxy-7-morpholin-4-yl-thiazolo[4,5-c]pyridin-2-yl)-4-(1H-tetrazol-5-yl)-benzamide], the IC50 at human A2B receptor was under 0.01 µM; on human A1 receptor, over 1 µM; on human A3 receptor it was under 1 µM; in the test with mouse Pan T cells [1] (Mus musculus, T-cell) it was under 0.1 µM; on human A2A receptor [3] it was under 0.1 µM; in the test on human T cells (T-cell), under 0.01 µM. Further, the concentration for half-maximal inhibition (IC50) at human A2A receptor [4] was under 0.01 µM.
Take `COc1nc(F)c(-c2ccccc2)c2sc(NC(=O)N3CC[C@]4(CCCOC4)C3)nc12` [Compound 12, (R)-7-Oxa-2-aza-spiro[4.5]decane-2-carboxylic acid (6-fluoro-4-methoxy-7-phenyl-thiazolo[4,5-c]pyridin-2-yl)-amide]: the IC50 was under 0.01 µM at human A2B receptor; under 1 µM at human A1 receptor; over 1 µM on human A3 receptor; under 0.01 µM with mouse Pan T cells [1] (Mus musculus, T-cell); under 0.01 µM in the test with mouse Pan T cells [2] (Mus musculus, T-cell); under 0.01 µM on human A2A receptor [3]. Besides, the concentration for half-maximal inhibition (IC50) in the test with human T cells (T-cell) and on human A2A receptor [4] was under 0.01 µM each time.
Take `COc1ncc(C2=CCOCC2)c2sc(NC(=O)N3CC[C@]4(CCCOC4)C3)nc12` [Compound 24, (R)-7-Oxa-2-aza-spiro[4.5]decane-2-carboxylic acid [7-(3,6-dihydro-2H-pyran-4-yl)-4-methoxy-thiazolo[4,5-c]pyridin-2-yl]-amide]: the IC50 at human A2B receptor is under 0.1 µM; on human A1 receptor it was under 1 µM; at human A3 receptor, over 1 µM; with mouse Pan T cells [1] (mouse Pan T cells, agonist NECA 1 uM) it was under 0.1 µM; on human A2A receptor [3] it was under 0.01 µM; with human T cells, under 0.01 µM. Besides, on human A2A receptor [4], the IC50 was under 0.01 µM.
Consider `COc1nc(F)c(N2CCOCC2)c2sc(NC(=O)N3CC[C@]4(CCOC4)C3)nc12` [Compound 19, (5S)-N-[6-fluoro-4-methoxy-7-(morpholin-4-yl)-[1,3]thiazolo[4,5-c]pyridin-2-yl]-2-oxa-7-azaspiro[4.4]nonane-7-carboxamide], for which the concentration for half-maximal inhibition (IC50) on human A2B receptor was under 0.1 µM; at human A1 receptor it was over 1 µM; at human A3 receptor it was over 1 µM; in the test on mouse Pan T cells [1] (Mus musculus, T-cell), under 0.1 µM; with mouse Pan T cells [2] (Mus musculus, T-cell), under 0.1 µM; on human A2A receptor [3] it was under 0.01 µM. Besides, the values for the concentration for half-maximal inhibition (IC50) in the test with human T cells (T-cell) and at human A2A receptor [4] were under 0.1 µM and under 0.01 µM, respectively.
As to `COc1nc(F)c(C2CCOCC2)c2sc(NC(=O)N3CC[C@]4(CCOC4)C3)nc12` [Compound 38, (5S)-N-[6-fluoro-4-methoxy-7-(oxan-4-yl)-[1,3]thiazolo[4,5-c]pyridin-2-yl]-2-oxa-7-azaspiro[4.4]nonane-7-carboxamide], the IC50 on human A2B receptor was under 0.01 µM; on human A1 receptor it was over 1 µM; at human A3 receptor, over 1 µM; in the test on mouse Pan T cells [1] (Mus musculus, T-cell) it was under 0.01 µM; in the test on mouse Pan T cells [2] (Mus musculus, T-cell) it was under 0.1 µM; at human A2A receptor [3], under 0.01 µM. On human A2A receptor [4], the concentration for half-maximal inhibition (IC50) was under 0.01 µM.
On to `COc1nc(F)c(N2CCOCC2)c2sc(NC(=O)N3CC[C@@]4(CCCOC4)C3)nc12` [Compound 11, (5S)-N-[6-fluoro-4-methoxy-7-(morpholin-4-yl)-[1,3]thiazolo[4,5-c]pyridin-2-yl]-7-oxa-2-azaspiro[4.5]decane-2-carboxamide], for which the IC50 was under 0.01 µM at human A2B receptor; over 1 µM at human A1 receptor; over 1 µM at human A3 receptor; under 0.1 µM with mouse Pan T cells [2] (Mus musculus, T-cell); under 0.01 µM on human A2A receptor [3]; under 0.01 µM in the test on human T cells (T-cell). Further, at human A2A receptor [4], the IC50 is under 0.01 µM.
